Source: the CheMixHub viscosity set
“And” between values parts separate entries of the source, which are not always exact repeats. Equal entries are not always repeated.

Assays:
[1] = xn = mol fraction of the nth substance listed

OCC1CCCCC1
Details | viscosity [mPa·s]
293.15 K, 100 kPa | 37.75

OCCCOCCCO
101 kPa
Details | viscosity [mPa·s]
293.15 K | 115
298.15 K | 78.2
303.15 K | 51.1
308.15 K | 37.2
313.15 K | 27.4
318.15 K | 20.8

OCCNCCO
viscosity
Details | 293.15 K | 298.15 K | 303.15 K | 308.15 K | 313.15 K | 318.15 K | 323.15 K
101 kPa | 841.5 mPa·s and 742 mPa·s | – | 365.7 mPa·s and 379.3 mPa·s | 263.1 mPa·s | 179.8 mPa·s and 186.4 mPa·s | 134.5 mPa·s | 89.7 mPa·s and 111 mPa·s and 98.85 mPa·s
101.33 kPa | – | 566.3 mPa·s | – | – | – | – | –

c1ccc2ncccc2c1
Details | viscosity
293.15 K, 101 kPa | 3.64 mPa·s
293.25 K, 101 kPa | 3.635 mPa·s
298 K, 101.3 kPa | 3.475 mPa·s
298.15 K, 101.33 kPa | 3.36 mPa·s
303 K, 101.3 kPa | 3.092 mPa·s
303.05 K, 101 kPa | 2.943 mPa·s
303.15 K, 101 kPa | 2.94 mPa·s and 3.1 mPa·s
303.15 K, 101.33 kPa | 3.01 mPa·s
308 K, 101.3 kPa | 2.777 mPa·s
308.15 K, 101.33 kPa | 2.68 mPa·s
313 K, 101.3 kPa | 2.489 mPa·s
313.15 K, 101 kPa | 2.385 mPa·s and 2.384 mPa·s
313.15 K, 101.33 kPa | 2.43 mPa·s
318 K, 101.3 kPa | 2.243 mPa·s and 2.242 mPa·s
318.15 K, 101.33 kPa | 2.21 mPa·s
323.15 K, 101.33 kPa | 2.03 mPa·s

COC(C)=O + c1ccccc1
[1], 101 kPa
Details | viscosity [mPa·s]
293.15 K, x1 = 0.5 | 0.48
298.15 K, x1 = 0.0436 | 0.587
298.15 K, x1 = 0.1504 | 0.55
298.15 K, x1 = 0.2504 | 0.52
298.15 K, x1 = 0.3483 | 0.494
298.15 K, x1 = 0.441 | 0.472
298.15 K, x1 = 0.4878 | 0.462
298.15 K, x1 = 0.5512 | 0.449
298.15 K, x1 = 0.6492 | 0.431
298.15 K, x1 = 0.7483 | 0.415
298.15 K, x1 = 0.8514 | 0.401
298.15 K, x1 = 0.9486 | 0.389
298.15 K, x2 = 0.1115 | 0.363
298.15 K, x2 = 0.1916 | 0.374
298.15 K, x2 = 0.293 | 0.388
298.15 K, x2 = 0.3964 | 0.407
298.15 K, x2 = 0.4965 | 0.429
298.15 K, x2 = 0.6017 | 0.454
298.15 K, x2 = 0.6991 | 0.482
298.15 K, x2 = 0.7955 | 0.512
298.15 K, x2 = 0.8946 | 0.548
303.15 K, x1 = 0.5 | 0.428
308.15 K, x1 = 0.0436 | 0.513
308.15 K, x1 = 0.1504 | 0.485
308.15 K, x1 = 0.2504 | 0.461
308.15 K, x1 = 0.3483 | 0.441
308.15 K, x1 = 0.441 | 0.423
308.15 K, x1 = 0.4878 | 0.415
308.15 K, x1 = 0.5 | 0.406
308.15 K, x1 = 0.5512 | 0.405
308.15 K, x1 = 0.6492 | 0.39
308.15 K, x1 = 0.7483 | 0.377
308.15 K, x1 = 0.8514 | 0.365
308.15 K, x1 = 0.9486 | 0.356
313.15 K, x2 = 0.1115 | 0.321
313.15 K, x2 = 0.1916 | 0.33
313.15 K, x2 = 0.293 | 0.339
313.15 K, x2 = 0.3964 | 0.354
313.15 K, x2 = 0.4965 | 0.37
313.15 K, x2 = 0.6017 | 0.388
313.15 K, x2 = 0.6991 | 0.407
313.15 K, x2 = 0.7955 | 0.429
313.15 K, x2 = 0.8946 | 0.455

COCCOC + c1ccccc1
[1], 298.15 K, 101 kPa
Details | viscosity [mPa·s]
x1 = 0.0878 | 0.571
x1 = 0.1781 | 0.545
x1 = 0.2708 | 0.524
x1 = 0.3662 | 0.504
x1 = 0.4643 | 0.484
x1 = 0.5652 | 0.467
x1 = 0.6691 | 0.45
x1 = 0.7761 | 0.435
x1 = 0.8864 | 0.42

O=C(O)c1ccccc1 + c1ccccc1
viscosity, [1]
Details | 303.15 K | 308.15 K | 313.15 K | 318.15 K
101 kPa, x1 = 0.0581 | 0.6414 mPa·s | 0.5991 mPa·s | 0.5625 mPa·s | 0.5267 mPa·s
101 kPa, x1 = 0.105 | – | 0.6626 mPa·s | 0.622 mPa·s | 0.5832 mPa·s
101.33 kPa, x1 = 0.0581 | 0.6414 mPa·s | 0.5991 mPa·s | 0.5625 mPa·s | 0.5267 mPa·s
101.33 kPa, x1 = 0.05813 | – | 0.5991 mPa·s | – | 0.5267 mPa·s
101.33 kPa, x1 = 0.06979 | – | 0.616 mPa·s | – | 0.5401 mPa·s
101.33 kPa, x1 = 0.08477 | – | 0.6421 mPa·s | – | 0.56 mPa·s
101.33 kPa, x1 = 0.105 | – | 0.6626 mPa·s and 0.6626 mPa·s | 0.622 mPa·s | 0.5832 mPa·s and 0.5832 mPa·s
101.33 kPa, x1 = 0.1232 | – | – | – | 0.61 mPa·s
